The molecules below were run on Mice (assay: not given). Settings: both, mouse, in vivo, 750 mg/kg, 1 week.
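Throughout, for Behaviors after administration with the compound to be tested (deaths): mice weighing 18–20 g, both sexes in equal proportion within each group.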

Structure (SMILES) | Behaviors after administration with the compound to be tested (deaths) [dead]
OCC1OC(c2ccc(F)c(Cc3cc4ccccc4s3)c2)C(O)C(O)C1O (stereo not shown) [drawing 265] | 7
CCOc1ccc(Cc2cc(C3SC(CO)C(O)C(O)C3O)c(OC)cc2C)cc1 (stereo not shown) [drawing 277] | 10

Same assay, conditions: mice, 10 mice/group, single intragastric dose 750 mg/kg, within one week

Structure (SMILES) | Behaviors after administration with the compound to be tested (deaths) [dead]
CCOc1ccc(Cc2cc(C3OC(CO)C(O)C(O)C3O)ccc2Cl)cc1 (stereo not shown) [drawing 264] | 8
CCc1ccc(Cc2c(Cl)ccc3c2COC32OC(CO)C(O)C(O)C2O)cc1 (stereo not shown) [drawing 266] | 7
CCOc1ccc(Cc2cc([C@]34OC[C@](CO)(O3)[C@@H](O)[C@H](O)[C@H]4O)ccc2Cl)cc1 [drawing 267] | 9
CCCOc1ccc(Cc2cc(C3OC(C)C(O)C(O)C3O)ccc2Cl)cc1 (stereo not shown) [drawing 268] | 6
CCOc1ccc(Cc2cc(C3OC(CO)CC(O)C3O)ccc2Cl)cc1 (stereo not shown) [drawing 269] | 2
CCOc1ccc(Cc2cc(C3CC(O)C(O)C(CO)O3)ccc2Cl)cc1 (stereo not shown) [drawing 270] | 2
Cc1ccc(C2OC(CO)CC(O)C2O)cc1Cc1ccc(-c2ccc(F)cc2)s1 (stereo not shown) [drawing 271] | 3
Cc1ccc(C2CC(O)C(O)C(CO)O2)cc1Cc1ccc(-c2ccc(F)cc2)s1 (stereo not shown) [drawing 272] | 5
CC1OC(c2ccc(F)c(Cc3cc4ccccc4s3)c2)C(O)C(O)C1O (stereo not shown) [drawing 273] | 2
OCC1OC(c2ccc(Cl)c(Cc3ccc(O[C@H]4CCOC4)cc3)c2)C(O)CC1O (stereo partly shown) [drawing 274] | 0
Cc1ccc(C2OC(CO)C(O)C(O)C2O)cc1Cc1ccc(-c2ccc(F)cc2)s1 (stereo not shown) [drawing 275] | 9
OCC1OC(c2ccc(Cl)c(Cc3ccc(O[C@H]4CCOC4)cc3)c2)C(O)C(O)C1O (stereo partly shown) [drawing 276] | 7
COc1ccc(Cc2cc(C3OC(C)C(O)C(O)C3O)ccc2Cl)cc1 (stereo not shown) [drawing 278] | 7
CCOc1ccc(Cc2cc(C3OC(C)C(O)C(O)C3O)ccc2Cl)cc1 (stereo not shown) [drawing 279] | 1
CCOc1ccc(Cc2cc(C3OC(CO)C(O)CC3O)ccc2Cl)cc1 (stereo not shown) [drawing 280] | 3
Cc1ccc(C2OC(C)C(O)C(O)C2O)cc1Cc1ccc(-c2ccc(F)cc2)s1 (stereo not shown) [drawing 281] | 4
Cc1ccc(C2OC(CO)C(O)CC2O)cc1Cc1ccc(-c2ccc(F)cc2)s1 (stereo not shown) [drawing 282] | 3
OCC1OC(c2ccc(F)c(Cc3cc4ccccc4s3)c2)C(O)CC1O (stereo not shown) [drawing 283] | 0
OCC1CC(O)C(O)C(c2ccc(F)c(Cc3cc4ccccc4s3)c2)O1 (stereo not shown) [drawing 284] | 1
OCC1OC(c2ccc(F)c(Cc3cc4ccccc4s3)c2)CC(O)C1O (stereo not shown) [drawing 285] | 3
CC1OC(c2ccc(Cl)c(Cc3ccc(O[C@H]4CCOC4)cc3)c2)C(O)C(O)C1O (stereo partly shown) [drawing 286] | 1
OCC1OC(c2ccc(Cl)c(Cc3ccc(O[C@H]4CCOC4)cc3)c2)CC(O)C1O (stereo partly shown) [drawing 287] | 2
CCc1ccc(Cc2c(Cl)ccc3c2COC32OC(CO)C(O)CC2O)cc1 (stereo not shown) [drawing 288] | 5
CCOc1ccc(Cc2cc(C3SC(CO)CC(O)C3O)c(OC)cc2C)cc1 (stereo not shown) [drawing 289] | 1
CCc1ccc(Cc2c(Cl)ccc3c2COC32CC(O)C(O)C(CO)O2)cc1 (stereo not shown) [drawing 290] | 2
CCOc1ccc(Cc2cc(C3CC(O)C(O)C(CO)S3)c(OC)cc2C)cc1 (stereo not shown) [drawing 291] | 3

These molecules were tested on SD rats (type 2 diabetes model) (assay: model for rat urine glucose excretion (glucose-oxidase method)). Settings: type 2 diabetes model SD rats, 6 mg/kg intragastrically, glucose 2 g/kg at 0.5 h, urine collected 0-12 h.
Format: in vivo
Experimental: The health SD rats are injected intraperitoneally with multiple low doses of streptozotocin for modeling (type 2 diabetes model) after feeding with high-fat and high-sucrose diet, and the content of blood glucose is measured before and after modeling. After the modeling successful, the rats for modeling are randomly divided (8 rats/group) into one blank group (administering the same volume of 0.5% CMC sodium solution) and several groups for compounds to be tested (6 mg/kg) according to the content of 24-hour urine glucose and the body weight. Rats in each group are fasted for 16 hours before experiment. The experimental rats are administered intragastrically with glucose (2 g/kg) at 0.5 h after intragastrical administration with compounds to be tested. The urine is collected at the time-period of 0-12 h after administration, and the urine glucose values are measured at each time-period by glucose-oxidase method.
The inhibiting activity of the cocrystal of I-D1-6 and L-proline on SGLT2 is measured by the model for rat urine glucose excretion.
The health SD rats are injected intraperitoneally with multiple low doses of streptozotocin for modeling (type 2 diabetes model) after feeding with high-fat and high-sucrose diet for one month, and the content of blood glucose is measured before and after modeling. After the modeling successful, the rats for modeling are randomly divided (8 rats/group) into one blank group (administering the same volume of 0.5% CMC sodium solution) and groups of tested compound (6 mg/kg) according to the content of 24-hour urine glucose and the body weight. Rats in each group are fasted for 16 hours before experiment. The experimental rats are administered intragastrically with the glucose (2 g/kg) at 0.5 h after intragastrical administration with the cocrystal of I-D1-6 and L-proline prepared in Example 138. The urine is collected at the time-period of 0-12 h after administration, and the urine glucose values are measured at each time-period by glucose-oxidase method.

Structure (SMILES) | Urine glucose excretion (mg/200 g body weight of the rat)
CCc1ccc(Cc2c(Cl)ccc3c2COC32OC(CO)C(O)CC2O)cc1 (stereo not shown) [drawing 246] | 712 mg/200 g body weight of the rat
CCOc1ccc(Cc2cc(C3SC(CO)CC(O)C3O)c(OC)cc2C)cc1 (stereo not shown) [drawing 247] | 677 mg/200 g body weight of the rat
CCc1ccc(Cc2c(Cl)ccc3c2COC32CC(O)C(O)C(CO)O2)cc1 (stereo not shown) [drawing 248] | 717 mg/200 g body weight of the rat
CCOc1ccc(Cc2cc(C3CC(O)C(O)C(CO)S3)c(OC)cc2C)cc1 (stereo not shown) [drawing 249] | 786 mg/200 g body weight of the rat
CCOc1ccc(Cc2cc([C@]34OC[C@](C)(O3)[C@@H](O)[C@H](O)[C@H]4O)ccc2Cl)cc1 [drawing 250] | 665 mg/200 g body weight of the rat
CCOc1ccc(Cc2cc([C@@]34OC[C@@](CO)(C[C@H](O)[C@H]3O)O4)ccc2Cl)cc1 [drawing 251] | 751 mg/200 g body weight of the rat
CCOc1ccc(Cc2cc(C3OC(C)CC(O)C3O)ccc2Cl)cc1 (stereo not shown) [drawing 252] | 765 mg/200 g body weight of the rat
CC1OC(c2ccc(F)c(Cc3cc4ccccc4s3)c2)CC(O)C1O (stereo not shown) [drawing 253] | 656 mg/200 g body weight of the rat
CCc1ccc(Cc2c(Cl)ccc3c2COC32CC(O)CC(CO)O2)cc1 (stereo not shown) [drawing 254] | 677 mg/200 g body weight of the rat
CCc1ccc(Cc2c(Cl)ccc3c2COC32OC(C)C(O)C(O)C2O)cc1 (stereo not shown) [drawing 255] | 755 mg/200 g body weight of the rat
CCOc1ccc(Cc2cc(C3SC(CO)C(O)CC3O)c(OC)cc2C)cc1 (stereo not shown) [drawing 256] | 766 mg/200 g body weight of the rat
CCOc1ccc(Cc2cc(C3SC(CO)C(O)CC3O)c(OC)cc2C)cc1 (stereo not shown) [drawing 257] | 728 mg/200 g body weight of the rat
CCOc1ccc(Cc2cc(C3SC(C)C(O)C(O)C3O)c(OC)cc2C)cc1 (stereo not shown) [drawing 258] | 698 mg/200 g body weight of the rat
CCOc1ccc(Cc2cc([C@]34C[C@@H](O)[C@H](O)[C@](CO)(CO3)O4)ccc2Cl)cc1 [drawing 259] | 565 mg/200 g body weight of the rat
CCOc1ccc(Cc2cc([C@]34OC[C@](CO)(O3)[C@@H](O)C[C@H]4O)ccc2Cl)cc1 [drawing 260] | 711 mg/200 g body weight of the rat
Cc1ccc(C2OC(C)C(O)CC2O)cc1Cc1ccc(-c2ccc(F)cc2)s1 (stereo not shown) [drawing 261] | 701 mg/200 g body weight of the rat
OCC1CCC(O)C(c2ccc(Cl)c(Cc3ccc(O[C@H]4CCOC4)cc3)c2)O1 (stereo partly shown) [drawing 262] | 721 mg/200 g body weight of the rat
CCOc1ccc(Cc2cc(C3CCC(O)C(CO)S3)c(OC)cc2C)cc1 (stereo not shown) [drawing 263] | 730 mg/200 g body weight of the rat
